The results in this text go back to EP4740948A1 (Dong Wha Pharm. Co., Ltd., priority 2023, dated 2025).

The target in one assay is EZH1 (Homo sapiens, UniProt Q92800). The assay can be described thus: AlphaLISA enzyme activity inhibition, EZH1. To be noted: for inhibition at 0.005 µM: 5nM test substance; for inhibition at 0.01 µM: 10nM test substance. The format is biochemical. In outline: (§1)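 Enzyme inhibition rate was calculated relative to DMSO from AlphaLISA signal, with acceptor beads added after a 2 h methylation reaction and donor beads 1 h later. Each enzyme, EZH1 or EZH2, was pre-mixed with compound (final 5 nM or 10 nM) in Tris buffer pH 8.0 before histone H3 peptide and SAM initiated the reaction.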
Sequence of EZH1 (Q92800 whole entry, species assumed): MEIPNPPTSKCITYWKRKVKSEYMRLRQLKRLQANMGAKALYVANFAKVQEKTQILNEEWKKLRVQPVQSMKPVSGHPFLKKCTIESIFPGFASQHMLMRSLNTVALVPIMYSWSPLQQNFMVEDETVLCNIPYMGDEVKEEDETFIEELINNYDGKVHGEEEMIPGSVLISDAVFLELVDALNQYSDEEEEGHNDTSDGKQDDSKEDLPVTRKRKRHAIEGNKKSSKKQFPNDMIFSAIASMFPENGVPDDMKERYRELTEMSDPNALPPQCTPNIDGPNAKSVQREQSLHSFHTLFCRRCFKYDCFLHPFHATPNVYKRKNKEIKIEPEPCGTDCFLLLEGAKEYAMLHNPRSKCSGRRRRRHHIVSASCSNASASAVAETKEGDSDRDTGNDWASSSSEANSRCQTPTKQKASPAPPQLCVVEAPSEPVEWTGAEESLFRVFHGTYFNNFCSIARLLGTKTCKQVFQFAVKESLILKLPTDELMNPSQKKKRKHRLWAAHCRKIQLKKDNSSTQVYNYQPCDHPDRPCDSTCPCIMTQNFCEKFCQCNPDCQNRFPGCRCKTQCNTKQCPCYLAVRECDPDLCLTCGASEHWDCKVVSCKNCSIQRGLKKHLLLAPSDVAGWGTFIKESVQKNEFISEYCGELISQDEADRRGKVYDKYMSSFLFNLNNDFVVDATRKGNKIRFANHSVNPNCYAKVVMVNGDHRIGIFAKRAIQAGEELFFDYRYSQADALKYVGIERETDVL
Sequence of EZH1 (O75530 whole entry partner, species assumed): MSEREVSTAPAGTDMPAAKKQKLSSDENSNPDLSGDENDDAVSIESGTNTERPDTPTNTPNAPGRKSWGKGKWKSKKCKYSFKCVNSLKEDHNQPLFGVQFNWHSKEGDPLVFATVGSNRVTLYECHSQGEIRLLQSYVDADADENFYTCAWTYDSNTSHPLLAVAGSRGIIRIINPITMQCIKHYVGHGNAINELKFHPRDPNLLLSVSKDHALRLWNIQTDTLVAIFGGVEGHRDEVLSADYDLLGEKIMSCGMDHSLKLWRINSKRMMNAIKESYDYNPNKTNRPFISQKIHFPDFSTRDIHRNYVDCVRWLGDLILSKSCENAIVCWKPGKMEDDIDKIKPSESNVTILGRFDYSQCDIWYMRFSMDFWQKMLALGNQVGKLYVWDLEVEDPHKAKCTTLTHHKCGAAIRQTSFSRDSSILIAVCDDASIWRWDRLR
Sequence of EZH1 (Q15022 whole entry partner, species assumed): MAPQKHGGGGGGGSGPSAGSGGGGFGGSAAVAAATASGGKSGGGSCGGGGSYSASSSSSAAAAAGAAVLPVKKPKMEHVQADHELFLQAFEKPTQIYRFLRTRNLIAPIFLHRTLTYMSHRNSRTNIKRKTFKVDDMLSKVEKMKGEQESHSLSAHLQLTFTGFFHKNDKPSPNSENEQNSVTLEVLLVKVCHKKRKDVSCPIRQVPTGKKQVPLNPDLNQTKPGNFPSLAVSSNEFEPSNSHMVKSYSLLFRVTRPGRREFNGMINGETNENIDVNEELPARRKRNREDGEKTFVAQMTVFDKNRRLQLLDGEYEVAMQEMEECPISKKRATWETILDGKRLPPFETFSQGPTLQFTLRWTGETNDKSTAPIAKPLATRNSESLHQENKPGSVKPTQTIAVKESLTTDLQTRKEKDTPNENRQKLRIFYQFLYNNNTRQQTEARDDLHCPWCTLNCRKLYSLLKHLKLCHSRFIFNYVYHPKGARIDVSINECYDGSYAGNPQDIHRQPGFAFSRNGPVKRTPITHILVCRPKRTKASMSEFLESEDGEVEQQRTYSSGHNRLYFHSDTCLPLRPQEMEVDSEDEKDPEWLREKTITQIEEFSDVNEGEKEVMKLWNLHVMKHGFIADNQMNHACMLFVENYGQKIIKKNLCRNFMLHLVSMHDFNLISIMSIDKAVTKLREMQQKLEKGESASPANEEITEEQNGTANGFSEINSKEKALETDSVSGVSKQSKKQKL
A general note: Bead proximity is the source of the signal in Alpha formats.

The next assay concerns the target EZH2 (Homo sapiens, UniProt Q15910). Briefly: AlphaLISA enzyme activity inhibition, EZH2. The format is biochemical. To be noted: for inhibition at 0.005 µM: 5nM test substance; for inhibition at 0.01 µM: 10nM test substance. The essentials:
as §1

In a further assay the test system is Lovo cells. The assay can be described thus: Cancer cell proliferation inhibition (Cell Counting Kit-8), colorectal cancer cell line. The class given is cell-based. The settings on record: 1000 nM, cultured seven to 11 days; for inhibition at 1 µM: Homo sapiens, LoVo, 264 h, read-out: % inhibition rate LoVo. In outline:
(§2)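 After plating 100 to 1,000 cells per well in medium with 10% fetal bovine serum, each line receives 1000 nM compound and is cultured for seven to 11 days. Growth inhibition is derived from CCK-8 signal compared with control cultures.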

A further assay concerns G401 cells. Briefly: Cancer cell proliferation inhibition (Cell Counting Kit-8), rhabdoid tumor cell line. The format is cell-based. To be noted: 1000 nM, cultured seven to 11 days; for inhibition at 1 µM: Homo sapiens, G-401, 264 h, read-out: % inhibition rate G401. In outline: (§3)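 Single 1000 nM dose of test substance, applied to cells seeded at 100–1,000 per well in 10% FBS medium, then culture for seven to 11 days. CCK-8 read-out; inhibition rate expressed as percent relative to untreated control.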
In general terms: Tetrazolium assays rely on reduction of a dye to a coloured formazan, in cell work by metabolically active cells.

A further assay relates to MKN-45 cells. Briefly: Cancer cell proliferation inhibition (Cell Counting Kit-8), gastric cancer cell line. The format is cell-based. To be noted: Homo sapiens, MKN-45, 264 h, 1000 nM, cultured seven to 11 days; read-out: % inhibition rate MKN -45. In outline: as §3
In another assay the test system is SW-13 cells. Briefly: Cancer cell proliferation inhibition (Cell Counting Kit-8), adrenal cancer cell line. The settings on record: Homo sapiens, SW13, 264 h, 1000 nM, cultured seven to 11 days; read-out: % inhibition rate SW-13. The class given is cell-based. The essentials: as §2
A further assay has as its system MIA-PaCa-2 cells. The assay can be described thus: Cancer cell proliferation inhibition (Cell Counting Kit-8), pancreatic cancer cell line. The format is cell-based. To be noted: Homo sapiens, MIA PaCa-2, 264 h, 1000 nM, cultured seven to 11 days; read-out: % inhibition rate MIA-Paca2. The essentials:
as §2

The next assay has as its system NCI-H1299 cells. The assay can be described thus: Cancer cell proliferation inhibition (Cell Counting Kit-8), lung cancer cell line. The class given is cell-based. To be noted: Homo sapiens, NCI-H1299, 264 h, 1000 nM, cultured seven to 11 days; read-out: % inhibition rate NCI-H129 9. In outline:
as §2

Sequence of EZH2 (Q15910 whole entry, species assumed): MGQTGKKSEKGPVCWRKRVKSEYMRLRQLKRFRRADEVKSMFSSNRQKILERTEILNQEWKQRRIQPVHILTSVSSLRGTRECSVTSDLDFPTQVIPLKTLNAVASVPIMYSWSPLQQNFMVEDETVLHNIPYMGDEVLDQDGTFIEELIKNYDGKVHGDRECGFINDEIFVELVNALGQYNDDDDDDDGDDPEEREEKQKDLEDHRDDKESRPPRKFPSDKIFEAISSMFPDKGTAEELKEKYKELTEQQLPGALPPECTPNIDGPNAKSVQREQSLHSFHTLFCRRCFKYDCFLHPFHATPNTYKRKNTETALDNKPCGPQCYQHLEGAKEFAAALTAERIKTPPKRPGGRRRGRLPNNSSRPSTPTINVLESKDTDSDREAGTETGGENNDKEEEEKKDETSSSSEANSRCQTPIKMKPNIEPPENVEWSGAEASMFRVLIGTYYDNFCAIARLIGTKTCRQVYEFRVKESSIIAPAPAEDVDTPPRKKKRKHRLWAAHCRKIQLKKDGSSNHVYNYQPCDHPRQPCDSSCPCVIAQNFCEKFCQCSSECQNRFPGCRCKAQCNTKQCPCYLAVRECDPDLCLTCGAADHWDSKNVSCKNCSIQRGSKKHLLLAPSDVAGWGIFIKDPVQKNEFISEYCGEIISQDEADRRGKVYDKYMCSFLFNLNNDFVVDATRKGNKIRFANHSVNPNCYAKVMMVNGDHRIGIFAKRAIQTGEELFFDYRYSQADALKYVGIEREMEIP
Sequence of EZH2 (O75530 whole entry partner, species assumed): as the sequence (O75530 whole entry partner, species assumed) above
Sequence of EZH2 (Q15022 whole entry partner, species assumed): as the sequence (Q15022 whole entry partner, species assumed) above

`COCCN(C)[C@H]1CC[C@H](C2(C)Oc3c(-c4cnc(N(C)C)nc4)cc(C(=O)NCc4c(SC)cc(C)[nH]c4=O)c(C)c3O2)CC1` (relative stereo) [Compound 26, 7-(2-(dimethylamino)pyrimidin-5-yl)-2-(trans-4-((2-methoxyethyl)(methyl)amino)cyclohexyl)-2,4-dimethyl-N-((6-methyl-4-(methylthio)-2-oxo-1,2-dihydropyridin-3-yl)methyl)benzo[d][1,3]dioxole-5-carboxamide]: the inhibition (as a rule, the relative decrease from the control value, in per cent) at 0.005 µM stood at 87.3% on EZH1 and 99.6% on EZH2. Further, the inhibition at 1 µM in the assay with Lovo cells was at least 70%; in the assay with G401 cells it was 30 to 70%; in the assay on MKN-45 cells it was at most 30%; with SW-13 cells it was 30 to 70%; in the assay on MIA-PaCa-2 cells it was at most 30%; in the assay with NCI-H1299 cells, at most 30%.
On to `COc1ccc(F)cc1-c1cc(C(=O)NCc2c(SC)cc(C)[nH]c2=O)c(C)c2c1OC(C)([C@H]1CC[C@H](N(C)C)CC1)O2` (relative stereo) [Compound 12, 2-(trans-4-(dimethylamino)cyclohexyl)-7-(5-fluoro-2-methoxyphenyl)-2,4-dimethyl-N-((6-methyl-4-(methylthio)-2-oxo-1,2-dihydropyridin-3-yl)methyl)benzo[d][1,3]dioxole-5-carboxamide], for which the inhibition at 0.005 µM came to 80.5% on EZH1 and 99.2% at EZH2. Moreover, the inhibition at 1 µM was 30 to 70% in the assay with Lovo cells; 30 to 70% with G401 cells; at most 30% in the assay with MKN-45 cells; 30 to 70% in the assay with SW-13 cells; at most 30% in the assay on MIA-PaCa-2 cells; at most 30% with NCI-H1299 cells.
In the case of `CSc1cc(C)[nH]c(=O)c1CNC(=O)c1cc(-c2ccc(N3C[C@@H](C)O[C@@H](C)C3)nc2)c2c(c1C)OC(C)([C@H]1CC[C@H](N(C)C(=O)C(F)(F)F)CC1)O2` (stereo partly drawn) [Compound 115, 7-(6-((2S,6R)-2,6-dimethylmorpholino)pyridin-3-yl)-2,4-dimethyl-N-((6-methyl-4-(methylthio)-2-oxo-1,2-dihydropyridin-3-yl)methyl)-2-(trans-4-(2,2,2-trifluoro-N-methylacetamido)cyclohexyl)benzo[d][1,3]dioxole-5-carboxamide], the values for the inhibition at 0.005 µM against EZH1 and against EZH2 were 6.1% and 37.3%, respectively. In addition, the inhibition at 0.01 µM was determined as 9.6% against EZH1 and 85.8% on EZH2. Moreover, the inhibition at 1 µM in the assay with Lovo cells is at least 70%; in the assay on G401 cells, 30 to 70%; in the assay on MKN-45 cells, at most 30%; in the assay with SW-13 cells, at most 30%; in the assay on MIA-PaCa-2 cells it was at most 30%; in the assay with NCI-H1299 cells, at most 30%.
Take `CSc1cc(C)[nH]c(=O)c1CNC(=O)c1cc(-c2ccc(N3C[C@@H](C)O[C@@H](C)C3)nc2)c2c(c1C)OC(C)(C1CCN(C(C)C)CC1)O2` (single isomer, unassigned) [Compound 51]: the inhibition at 0.005 µM against EZH1 is 80.2%; at EZH2 it was 99.3%. Further, the inhibition at 0.01 µM against EZH1 came out at 93%; at EZH2 it was 99.5%. In addition, the “% inhibition rate LoVo” value in the assay on Lovo cells (1 µM) was “+++ (+++: ≥70%)”. Besides, the “% inhibition rate G401” value in the assay on G401 cells (1 µM) is “+++ (+++: ≥70%)”. Further, the inhibition at 1 µM was at most 30% with MKN-45 cells, 30 to 70% with SW-13 cells, at most 30% with MIA-PaCa-2 cells and 30 to 70% in the assay on NCI-H1299 cells.
`CSc1cc(C)[nH]c(=O)c1CNC(=O)c1cc(-c2ccc3c(c2)OCO3)c2c(c1C)OC(C)(C1CCN(CC(F)F)CC1)O2` (centres unmarked) [Compound 95, 2-(1-(2,2-difluoroethyl)piperidin-4-yl)-2,7-dimethyl-N-((6-methyl-4-(methylthio)-2-oxo-1,2-dihydropyridin-3-yl)methyl)-[4,5'-bibenzo[d][1,3]dioxole]-6-carboxamide]: the inhibition at 0.005 µM against EZH1 came out at 38.1%; at EZH2, 83.2%. For the same compound, the results for the inhibition at 0.01 µM on EZH1 and on EZH2 were 46% and 91.1%, respectively. The inhibition at 1 µM was at least 70% with Lovo cells; at least 70% with G401 cells; 30 to 70% in the assay on MKN-45 cells; at most 30% in the assay with SW-13 cells; at most 30% with MIA-PaCa-2 cells; at most 30% in the assay with NCI-H1299 cells.
On to `CSc1cc(C)[nH]c(=O)c1CNC(=O)c1cc(-c2cnc(N(C)C)nc2)c2c(c1C)OC(C)([C@H]1CC[C@H](N(C)CC(F)(F)F)CC1)O2` (relative stereo) [Compound 22, 7-(2-(dimethylamino)pyrimidin-5-yl)-2,4-dimethyl-2-(trans-4-(methyl(2,2,2-trifluoroethyl)amino)cyclohexyl)-N-((6-methyl-4-(methylthio)-2-oxo-1,2-dihydropyridin-3-yl)methyl)benzo[d][1,3]dioxole-5-carboxamide], for which the inhibition at 0.005 µM on EZH1 is 53.1%; on EZH2, 81%. Moreover, the inhibition at 1 µM was at least 70% in the assay on Lovo cells; 30 to 70% with G401 cells; 30 to 70% with MKN-45 cells; at most 30% in the assay with SW-13 cells; at most 30% in the assay with MIA-PaCa-2 cells; at most 30% with NCI-H1299 cells.
`CSc1cc(C)[nH]c(=O)c1CNC(=O)c1cc(-c2ccc(N3CC(C)CC(C)C3)nc2)c2c(c1C)OC(C)([C@H]1CC[C@H](N(C)C)CC1)O2` (relative stereo) [Compound 16, 2-(trans-4-(dimethylamino)cyclohexyl)-7-(6-(3,5-dimethylpiperidin-1-yl)pyridin-3-yl)-2,4-dimethyl-N-((6-methyl-4-(methylthio)-2-oxo-1,2-dihydropyridin-3-yl)methyl)benzo[d][1,3]dioxole-5-carboxamide]: the figures for the inhibition at 0.005 µM against EZH1 and at EZH2 were 69% and 92.4%, respectively. Further, the inhibition at 1 µM in the assay with Lovo cells is at least 70%; with G401 cells, 30 to 70%; with MKN-45 cells, 30 to 70%; with SW-13 cells, at least 70%; in the assay with MIA-PaCa-2 cells, at most 30%; in the assay on NCI-H1299 cells it was at most 30%.
As to `CSc1cc(C)[nH]c(=O)c1CNC(=O)c1cc(-c2ccc(N3CCSCC3)nc2)c2c(c1C)OC(C)([C@H]1CC[C@H](N(C)C)CC1)O2` (relative stereo) [Compound 17, 2-(trans-4-(dimethylamino)cyclohexyl)-2,4-dimethyl-N-((6-methyl-4-(methylthio)-2-oxo-1,2-dihydropyridin-3-yl)methyl)-7-(6-thiomorpholinopyridin-3-yl)benzo[d][1,3]dioxole-5-carboxamide], the inhibition at 0.005 µM is 93.8% against EZH1 and 99.3% on EZH2. Moreover, the inhibition at 1 µM in the assay on Lovo cells was at least 70%; in the assay with G401 cells, 30 to 70%; with MKN-45 cells it was at most 30%; in the assay on SW-13 cells, 30 to 70%; in the assay on MIA-PaCa-2 cells, at most 30%; with NCI-H1299 cells, 30 to 70%.
In the case of `CSc1cc(C)[nH]c(=O)c1CNC(=O)c1cc(-c2ccc(N3C[C@@H](C)O[C@@H](C)C3)nc2)c2c(c1C)OC(C)([C@H]1CC[C@H](N(C)C[C@H](C)O)CC1)O2` (stereo partly drawn) [Compound 29, 7-(6-((2S,6R)-2,6-dimethylmorpholino)pyridin-3-yl)-2-(trans-4-(((S)-2-hydroxypropyl)(methyl)amino)cyclohexyl)-2,4-dimethyl-N-((6-methyl-4-(methylthio)-2-oxo-1,2-dihydropyridin-3-yl)methyl)benzo[d][1,3]dioxole-5-carboxamide], the inhibition at 0.005 µM is 91.6% against EZH1 and 98.3% on EZH2. In addition, the inhibition at 1 µM in the assay with Lovo cells was at least 70%; with G401 cells it was 30 to 70%; with MKN-45 cells, at most 30%; in the assay on SW-13 cells it was 30 to 70%; in the assay with MIA-PaCa-2 cells, at most 30%; in the assay on NCI-H1299 cells, at most 30%.
Turning to `CSc1cc(C)[nH]c(=O)c1CNC(=O)c1cc(-c2ccc(F)nc2F)c2c(c1C)OC(C)([C@H]1CC[C@H](N(C)C)CC1)O2` (relative stereo) [Compound 14, 7-(2,6-difluoropyridin-3-yl)-2-(trans-4-(dimethylamino)cyclohexyl)-2,4-dimethyl-N-((6-methyl-4-(methylthio)-2-oxo-1,2-dihydropyridin-3-yl)methyl)benzo[d][1,3]dioxole-5-carboxamide], the inhibition at 0.005 µM against EZH1 is 86.4%; against EZH2, 97.6%. For the same compound, the inhibition at 1 µM is at least 70% in the assay on Lovo cells; 30 to 70% in the assay with G401 cells; at most 30% with MKN-45 cells; 30 to 70% in the assay on SW-13 cells; at most 30% in the assay with MIA-PaCa-2 cells; at most 30% in the assay on NCI-H1299 cells.
